Measurements reported in US9861616B2, “Methods for treating respiratory diseases and formulations therefor” (priority 2013, dated 2018).
Converted amounts (≈) assume the structure as drawn.

Experiments:
[1] = system: P. aeruginosa (PA); experiment: MIC by microdilution, 36 clinical and laboratory strains with known efflux phenotype; assay type: cell-based
Protocol: MICs of 36 clinical and laboratory strains of PA with known efflux phenotype are measured by microdilution in cation-adjusted Muller-Hinton broth (CA-MHB) or in RPMI medium (commonly used in eukaryotic cell culture). Phe-Arg-β-naphthylamide (PaβN, 50 mg/L) and EGTA 5 mM are used to inhibit efflux pumps and alter OM integrity, respectively. P. aeruginosa strain ATCC PAO1 is used as reference. PA12 is a clinical strain overexpressing the 4 main efflux systems (MexAB, MexCD, MexEF, MexXY), PA403 is a laboratory strain deleted in the genes coding for the 4 efflux systems. A series of reference strains or of clinical isolates for which the expression of genes coding for efflux pumps is known is also used for MICs determinations. MICs are measured by microdilution in MH broth or in RPMI medium (used for eukaryotic cells culture) supplemented with 10% of fetal calf serum, or in MH broth supplemented by increasing amounts of serum. EGTA (5 mM) was used as a chelating agent (disrupting outer membrane integrity) and PaβN (50 mg/L) as an unspecific efflux inhibitor.

[2] = system: MMP9 activity; experiment: PMA-induced MMP9 activation in U937 cells (gelatin zymography); assay type: cell-based, human
Protocol: Effects of macrolides on phorbol 12-myristate 13-acetate (PMA)-induced MMP9 activation in U937 cells. […] After 48 h supernatants were collected for zymography. MMP9 enzyme activity was measured by gelatin zymography. Data are expressed relative to standard.
The human monocytic cell line U937 was obtained from the American Type Culture Collection (ATCC, Rockville, Md.). PBMCs from COPD patients were obtained from Brompton hospital and separated by AccuSPIN (Sigma-Aldrich). Cells were cultured in complete growth medium (RPMI 1640) (Sigma-Aldrich) supplemented with 10% fetal bovine serum (FBS) and 1% L-glutamine at 37° C. in a humidified atmosphere with 5% CO2. U937 cells were differentiated into adherent macrophage-like morphology by exposure to PMA (50 ng/mL) for 48 hrs in complete growth medium. Cell viability was assessed microscopically by trypan blue staining. Cell toxicity was determined by MTT assay as needed. This study was approved by the ethics committee of the Royal Brompton Hospitals, and all subjects gave written informed consent.
MMP9 enzyme activity was measured by gelatin zymography. Cell culture supernatants were diluted with equal amount of Laemli sample buffer (Bio-Rad, Hertfordshire, UK) and loaded on a Novex® 10% Zymogram (Gelatin) gel (Invitrogen Ltd, Paisley, UK). After electrophoresis, gels were incubated and rinsed with Novex® zymogram renaturing buffer (Invitrogen) for 30 min at room temperature. The gels were then rinsed in Novex® zymogram developing buffer (Invitrogen) for 30 min at room temperature prior to overnight incubation in the developing buffer at 37° C. After incubation, the gels were stained using a Colloidal Blue Staining Kit (Invitrogen) to visualize the zymogen bands.
The results were expressed as the mean±SEM. Comparisons of data in two groups were performed using the Student's t test or the Wilcoxon signed rank test. Multiple comparisons were made by one-way ANOVA with post hoc test (Dunnett's) as appropriate. The difference was considered significant at p<0.05. IC50 values (50% inhibitory concentration) for macrolides for production of cytokines or MMP9 were calculated using Prism 4.0 (GraphPad Software Inc., San Diego, Calif.).

[3] = system: MRSA strains from CF patients; experiment: Microdilution MICs against 40 MRSA strains from CF patients; assay type: cell-based, S. aureus; details: Staphylococcus aureus, 40 MRSA strains from CF patients
Protocol: Two strains each of mucoid P. aeruginosa (both pyocyanin positive) and […] MRSA (only one strain with gold colonies) isolated from patients at a CF clinic were tested. Additionally, 2 B. cepacia strains were acquired, from Hershey Medical Center. All strains were identified by standard methods. Only one strain per patient was tested. MLVA was done on all strains to examine clonality, and confirmed that examination is not taking place on only one or a few clones. Strains will be stored in skim milk at −70° C. until use.
Original MICs of each strain to CEM-101 and other comparators were tested by CLSI microdilution methodology. Trays were obtained from Trek, Inc., Cleveland, Ohio. Time-kill macrobroth MIC dilution by CLSI was performed for all synergy testing.

Q: Which results are given for `CC[C@H]1OC(=O)[C@H](C)[C@@H](O[C@H]2C[C@@](C)(OC)[C@@H](O)[C@H](C)O2)[C@H](C)[C@@H](O[C@@H]2O[C@H](C)C[C@H](N(C)C)[C@H]2O)[C@](C)(OC)C[C@@H](C)C(=O)[C@H](C)[C@@H](O)[C@]1(C)O` [CLR, clarithromycin]?
A: MIC ([1]; strain 1, efflux AB+, MHB): 512 µg/mL (≈ 685 µM); MIC ([1]; strain 1, efflux AB+, RPMI): 32 µg/mL (≈ 42.8 µM); MIC ([1]; strain 2, efflux CD+, MHB): 512 µg/mL (≈ 685 µM); MIC ([1]; strain 2, efflux CD+, RPMI): 128 µg/mL (≈ 171 µM); MIC ([1]; strain 3, efflux EF+, RPMI): 16 µg/mL (≈ 21.4 µM); MIC ([1]; strain 4, efflux XY+, MHB): 512 µg/mL (≈ 685 µM); MIC ([1]; strain 4, efflux XY+, RPMI): 32 µg/mL (≈ 42.8 µM); MIC ([1]; strain 11, efflux AB + CD+, MHB): 512 µg/mL; MIC ([1]; strain 11, efflux AB + CD+, RPMI): 16 µg/mL; MIC ([1]; strain 12, efflux AB + CD + EF + XY+, MHB): 512 µg/mL; MIC ([1]; strain 12, efflux AB + CD + EF + XY+, RPMI): 16 µg/mL; MIC ([1]; strain 16, efflux AB + XY+, MHB): 512 µg/mL; MIC ([1]; strain 16, efflux AB + XY+, RPMI): 64 µg/mL; MIC ([1]; strain 21, efflux AB+, MHB): 512 µg/mL (≈ 685 µM); MIC ([1]; strain 21, efflux AB+, RPMI): 64 µg/mL (≈ 85.6 µM); MIC ([1]; strain 22, efflux XY+, MHB): 512 µg/mL (≈ 685 µM); MIC ([1]; strain 22, efflux XY+, RPMI): 32 µg/mL (≈ 42.8 µM); MIC ([1]; strain 40, efflux EF+, RPMI): 16 µg/mL (≈ 21.4 µM); MIC ([1]; strain 41, efflux CD+, MHB): 512 µg/mL (≈ 685 µM); MIC ([1]; strain 41, efflux CD+, RPMI): 64 µg/mL (≈ 85.6 µM); MIC ([1]; strain 48, efflux CD + EF + XY+, MHB): 512 µg/mL; MIC ([1]; strain 48, efflux CD + EF + XY+, RPMI): 64 µg/mL; MIC ([1]; strain 49, efflux CD + EF + XY+, MHB): 512 µg/mL; MIC ([1]; strain 49, efflux CD + EF + XY+, RPMI): 32 µg/mL; MIC ([1]; strain 63, efflux AB + EF + XY+, MHB): 512 µg/mL; MIC ([1]; strain 63, efflux AB + EF + XY+, RPMI): 32 µg/mL; MIC ([1]; strain 68, efflux AB + XY+, MHB): 512 µg/mL; MIC ([1]; strain 68, efflux AB + XY+, RPMI): 64 µg/mL; MIC ([1]; strain 133, efflux EF + XY+, MHB): 512 µg/mL; MIC ([1]; strain 133, efflux EF + XY+, RPMI): 64 µg/mL; MIC ([1]; strain 156, efflux EF + XY+, MHB): 512 µg/mL; MIC ([1]; strain 156, efflux EF + XY+, RPMI): 32 µg/mL; MIC ([1]; strain 168B, efflux CD + XY+, MHB): 512 µg/mL; MIC ([1]; strain 207, efflux AB + EF + XY+, MHB): 512 µg/mL; MIC ([1]; strain 207, efflux AB + EF + XY+, RPMI): 64 µg/mL; MIC ([1]; strain 266B, efflux AB + CD+, MHB): 512 µg/mL; MIC ([1]; strain 266B, efflux AB + CD+, RPMI): 64 µg/mL; MIC ([1]; strain 333A, efflux AB + EF+, MHB): 512 µg/mL; MIC ([1]; strain 333A, efflux AB + EF+, RPMI): 64 µg/mL; MIC ([1]; strain 335, efflux AB + EF+, MHB): 512 µg/mL; MIC ([1]; strain 335, efflux AB + EF+, RPMI): 64 µg/mL; MIC ([1]; strain 391, efflux EF−, RPMI): 16 µg/mL (≈ 21.4 µM); MIC ([1]; strain 392, efflux CD−, RPMI): 16 µg/mL (≈ 21.4 µM); MIC ([1]; strain 394, efflux XY−, MHB): 512 µg/mL (≈ 685 µM); MIC ([1]; strain 394, efflux XY−, RPMI): 32 µg/mL (≈ 42.8 µM); MIC ([1]; strain 395, efflux HI−, RPMI): 32 µg/mL (≈ 42.8 µM); MIC ([1]; strain 396, ompH−, MHB): 64 µg/mL (≈ 85.6 µM); MIC ([1]; strain 396, ompH−, RPMI): 16 µg/mL (≈ 21.4 µM); MIC ([1]; strain 397, efflux AB−, MHB): 16 µg/mL (≈ 21.4 µM); MIC ([1]; strain 397, efflux AB−, RPMI): 2 µg/mL (≈ 2.67 µM); MIC ([1]; strain 398, efflux CD−, MHB): 32 µg/mL (≈ 42.8 µM); MIC ([1]; strain 398, efflux CD−, RPMI): 4 µg/mL (≈ 5.35 µM); MIC ([1]; strain 399, efflux AB − EF−, MHB): 16 µg/mL (≈ 21.4 µM); MIC ([1]; strain 399, efflux AB − EF−, RPMI): 4 µg/mL (≈ 5.35 µM); MIC ([1]; strain 400, efflux XY−, MHB): 16 µg/mL (≈ 21.4 µM); MIC ([1]; strain 400, efflux XY−, RPMI): 4 µg/mL (≈ 5.35 µM); MIC ([1]; strain 401, ompH−, MHB): 8 µg/mL (≈ 10.7 µM); MIC ([1]; strain 401, ompH−, RPMI): 2 µg/mL (≈ 2.67 µM); MIC ([1]; strain 403, efflux AB − CD − EF − XY−, MHB): 16 µg/mL (≈ 21.4 µM); MIC ([1]; strain 403, efflux AB − CD − EF − XY−, RPMI): 4 µg/mL (≈ 5.35 µM); MIC ([1]; strain 405, efflux AB − CD − EF − XY−, MHB): 8 µg/mL (≈ 10.7 µM); MIC ([1]; strain 405, efflux AB − CD − EF − XY−, RPMI): 4 µg/mL (≈ 5.35 µM); MIC ([1]; strain 434, efflux AB + CD + XY+, MHB): 512 µg/mL; MIC ([1]; strain 434, efflux AB + CD + XY+, RPMI): 128 µg/mL; MIC ([1]; strain PAO1, REFERENCE, MHB): 512 µg/mL (≈ 685 µM); MIC ([1]; strain PAO1, REFERENCE, RPMI): 32 µg/mL (≈ 42.8 µM); inhibitory effect on MMP9 activity, lower than CEM-101 [2]: 10 fold; IC50 ([2]; Homo sapiens, U-937, read-out: IC50, PMA-induced MMP9 activation): 118 µM; MIC50 ([3]; read-out: MIC50): ≥ 32 µg/mL; MIC90 ([3]; read-out: MIC90): ≥ 32 µg/mL
